Values of other authors in patent US20100136094A1, “Systems for modulating inflammation” (Searete LLC, a limited liability corporation of the state …, priority 2008, published 2010).

How the values were obtained:
Src family kinase = conditions: Sanjuan et al. 2006
[1] = tested on: proteasomal activity in cultured breast cancer cells; conditions: on binding copper, Chen et al. 2006
mice = conditions: Nakamura et al. 2007
Toll-like receptor 4 = Toll-like receptor 4 (Homo sapiens, UniProt O00206); conditions: Nakamura et al. 2007
Sequence of Toll-like receptor 4 (O00206 24-839, species assumed): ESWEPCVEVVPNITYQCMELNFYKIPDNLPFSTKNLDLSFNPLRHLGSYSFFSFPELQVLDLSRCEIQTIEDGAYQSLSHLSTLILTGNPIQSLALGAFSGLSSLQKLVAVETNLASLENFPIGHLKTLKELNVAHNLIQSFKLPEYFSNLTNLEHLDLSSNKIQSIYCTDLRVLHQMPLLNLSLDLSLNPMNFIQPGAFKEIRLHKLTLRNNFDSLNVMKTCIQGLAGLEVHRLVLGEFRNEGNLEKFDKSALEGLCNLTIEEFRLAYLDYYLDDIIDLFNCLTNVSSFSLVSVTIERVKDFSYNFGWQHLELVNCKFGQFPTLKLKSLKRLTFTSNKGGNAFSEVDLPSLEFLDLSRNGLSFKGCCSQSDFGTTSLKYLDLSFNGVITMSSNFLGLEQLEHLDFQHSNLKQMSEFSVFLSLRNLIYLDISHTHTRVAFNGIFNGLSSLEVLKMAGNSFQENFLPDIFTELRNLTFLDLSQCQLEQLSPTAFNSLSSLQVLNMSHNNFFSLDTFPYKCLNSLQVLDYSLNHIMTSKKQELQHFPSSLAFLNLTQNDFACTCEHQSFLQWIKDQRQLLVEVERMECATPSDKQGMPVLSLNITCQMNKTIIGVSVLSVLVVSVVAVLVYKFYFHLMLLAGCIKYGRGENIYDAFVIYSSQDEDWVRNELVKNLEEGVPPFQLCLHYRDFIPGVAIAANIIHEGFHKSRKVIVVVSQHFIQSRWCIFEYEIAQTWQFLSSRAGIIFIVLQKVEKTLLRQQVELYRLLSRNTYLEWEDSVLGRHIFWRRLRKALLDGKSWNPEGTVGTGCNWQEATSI

[2] = 400 mg infused over one hour, single agent; Looareesuwan et al. 1986
[3] = tested on: Src family kinases (Src, Lck, Yes, Fyn); conditions: at nanomolar concentrations
Epha1 = conditions: at nanomolar concentrations

Compound: CCN(CC)CCCC(C)Nc1ccnc2cc(Cl)ccc12 (centres unmarked) [Chloroquine]
- inhibition of CpG-induced Src family kinase activation, or its dependent cellular responses (Src family kinase): does not inhibit

Compound: CCN(CC)C(=S)SSC(=S)N(CC)CC [Disulfiram, 1-(diethylthiocarbamoyldisulfanyl)-N,N-diethyl-methanethioamide]
- proteasomal activity [1]: inhibits proteasomal activity
- inhibition of aldehyde dehydrogenase (aldehyde dehydrogenase): inhibits aldehyde dehydrogenase without toxicity

Compound: Cl.Cl.Nc1ccccc1Oc1ccc2c(N)nsc2c1 [Example M62812, 3-amino-6-(2-aminophenoxy)-1,2-benzisothiazole dihydrochloride]
- prevention of lethal septic shock (mice): prevents lethal septic shock
- inhibition of Toll-like receptor 4 (Toll-like receptor 4): inhibitor

Compound: CCN(CC)CCCC(C)Nc1ccnc2cc(Cl)ccc12.O=P(O)(O)O.O=P(O)(O)O (centres unmarked) [chloroquine phosphate, 7-chloro-4-[[4-(diethylamino)-1-methylbutyl]amino]quinoline phosphate (1:2)]
- tolerability of intravenous infusion [2]: without complication

Compound: Cc1nc(Nc2ncc(C(=O)Nc3c(C)cccc3Cl)s2)cc(N2CCN(CCO)CC2)n1.O [dasatinib, N-(2-chloro-6-methylphenyl)-2-[[6-[4-(2-hydroxyethyl)-1-piperazinyl]-2-methyl-4-pyrimidinyl]amino]-5-thiazolecarboxamide, monohydrate]
- inhibition of Src family kinases (Src, Lck, Yes, Fyn) [3]: inhibits
- inhibition of Epha1 (Epha1): inhibits
